The text below walks through data of publication PMC7830917, “PEG-BHD1028 Peptide Regulates Insulin Resistance and Fatty Acid β-Oxidation, and Mitochondrial Biogenesis by Binding to Two Heterogeneous Binding Sites of Adiponectin Receptors, AdipoR1 and AdipoR2” (International Journal of Molecular Sciences, 2021).

Assay [1] relates to insulin-resistant C2C12 myotubes. In words: 2-Deoxy-D-glucose uptake, insulin-resistant C2C12 myotubes. The settings on record: 0.6 mM palmitate; 100 nM insulin. The format is cell-based, mouse. How it is done: (§1) Skeletal muscle is the primary site of glucose metabolism, accounting for approximately […] of the entire body’s glucose uptake in the presence of insulin [22]. […] The effect of PEG-BHD1028 on glucose uptake in insulin-resistant C2C12 skeletal muscle cells was evaluated. To induce insulin resistance, differentiated C2C12 myotubes were treated with 0.6 mM palmitate and incubated for 16 h and then treated with 100 nM insulin and PEG-BHD1028 at concentrations of 100 and 500 nM for 30 min.
(§2) The 2-DG uptake of C2C12 cells was measured using the Glucose Uptake Assay Kit (Colorimetric, Ab136955, Abcam, Cambridge, UK) according to the manufacturer’s instruction. Palmitate to induce insulin resistance was prepared with minor modifications from the previous description. Briefly, palmitate was dissolved in 0.1 M NaOH to a concentration of 20 mM by heating at 75 °C and the dissolved solution was then diluted with 5% fatty acid-free bovine serum at a stock solution of 6 mM at 55 °C. Cells were treated with 0.6 mM palmitate overnight. The fixed cells were washed three times with DPBS, followed by incubation in Krebs-Ringer-Phosphate-Hepes (KRPH) buffer containing 2% fatty acid free-BSA for 40 min. […] Absorbance was measured using an Epoch microplate reader (BioTek Instruments, Inc., Winooski, VT, USA) at 412 nm.

A further assay deals with C2C12 myotubes. Kind of assay: 2-Deoxy-D-glucose uptake, non-resistant C2C12 myotubes. The format is cell-based, mouse. The settings on record: 100 nM insulin. As to the method: as §1, §2
For the next assay, the system named is diabetic swine. The settings on record: cited from earlier work. From the text:
It has also been well accepted that adiponectin alleviates insulin resistance, and adiponectin deficiency leads to abnormal glucose metabolism. Thus, insulin resistance has been recognized as the most fundamental root cause of type 2 diabetes mellitus, and the concentration of circulating adiponectin is negatively correlated with insulin resistance. […] Recent studies also have shown that p38 MAPK acts as an essential mediator in regulating adiponectin-induced ...

For assay [2] the following is noted: via AMPK, after binding to AdipoR1 and AdipoR2 in the hypothalamus; cited from earlier work. From the text:
Besides the effect on the amelioration of insulin resistance, it has been widely known that adiponectin induces weight loss through fatty acid oxidation and energy expenditure. At the molecular level, adiponectin activates 5’ AMP-activated protein kinase (AMPK) and peroxisome proliferator-activated receptor alpha (PPARα) signal pathways. AMPK pathway ultimately enhances mitochondrial biogenesis and fatty acid β-oxidation, and the activated PPARα promotes uptake, utilization, and catabolism of fatty acids by upregulating the genes involved in fatty acid transport, fatty acid-binding ...

On to insulin: insulin, for which the “glucose uptake, insulin-resistant cells, insulin alone” value in assay [1] is “not observed”. The “glucose uptake, non-resistant cells, insulin alone” value in the assay on C2C12 myotubes is “significantly increased”.

B1: adiponectin: hormone, endogenous ligand of AdipoR1 and AdipoR2 (protein, UniProt Q15848 19-244, looked up)
Adiponectin: ETTTQGPGVLLPLPKGACTGWMAGIPGHPGHNGAPGRDGRDGTPGEKGEKGDPGLIGPKGDIGETGVPGAEGPRGFPGIQGRKGEPGEGAYVYRSAFSVGLETYVTIPNMPIRFTKIFYNQQNHYDGSTGKFHCNIPGLYYFAYHITVYMKDVKVSLFKKDKAMLFTYDQYQENNVDQASGSVLLHLEVGDQVWLQVYGEGERNGLYADNDNDSTFTGFLLYHDTN
With B1, in the assay with diabetic swine, the “glucose metabolism / insulin sensitivity” value is given as “enhanced glucose metabolism by improving insulin sensitivity”. Besides, the appetite entry in assay [2] is “induced appetite”.
